Measured values published in US9375459B2, “Cyclic peptides with an anti-neoplasic and anti-angiogenic activity” (priority 2011, dated 2016).
Where a SMILES comes first, the peptide text is derived from it.

Test system: human tumor cells
Assay: Cytotoxic activity screening of peptide library on human tumor cell lines, SRB method
Format: cell-based
Settings: for Cytotoxic activity in vitro: SRB method, cytotoxic = dose-dependent 50% inhibition of proliferation, GI50 below 100 μM in at least one cell line
Experimental: Negative control cells were cultured on a volume of vehicle equal to that of the experimental samples. An “x-y” curve (dose-response) was established with the percent of surviving cells, compared in respect to the negative control cells, and the following parameters were estimated: 50% growth inhibition (GI50); Total growth inhibition (TGI); and the lethal concentration 50 (LC50), that is the concentration causing the 50% of cell death (Boyd M R, Paull K D, and Rubinstein L R (1992) “Data display and analysis strategies for the NCI Disease Oriented In-Vitro Antitumor Drug Screen, in Cytotoxic Anticancer Drugs: Models and Concept for Drug Discovery and Development” (Baleriote F A, Corbett T H and Baker L H eds) pp 11-34, Kluwer Academia Publishers, Boston).
Were considered as cytotoxic peptides all those peptides being able of inhibiting 50% of the cellular proliferation, in a dose-dependent manner, and showing GI50 values below 100 μM, at least in one of the cell lines studied. The human tumor cell lines used were: HEp-2 (larynx carcinoma), A549 (lung epithelial adenocarcinoma), M14 (melanoma), Colo 205 (colon adenocarcinoma), Ls174T (colon adenocarcinoma), LnCAP (prostate carcinoma), PC-3 (prostate carcinoma) and H 125 (non-small cell lung adenocarcinoma). Represented are primary sequences for the designed peptides, the code used for its generation and their respective cytotoxic capacity on human tumor cells.

SMILES	Cytotoxic activity in vitro	cytotoxic / biological activity in vitro on tumor cells (peptide library screening)
CC[C@H](C)[C@H](NC(=O)[C@H](CCCNC(=N)N)NC(=O)[C@H](CCC(N)=O)NC(=O)[C@H](CC(N)=O)NC(=O)[C@H](C)NC(=O)[C@@H](NC(=O)[C@H](Cc1ccc(O)cc1)NC(=O)CNC(=O)[C@@H](N)CO)[C@@H](C)O)C(=O)N[C@@H](CC(N)=O)C(=O)N[C@@H](CC(C)C)C(=O)N[C@@H](CC(N)=O)C(=O)N[C@@H](CCC(=O)O)C(=O)N[C@@H](CCCCN)C(=O)N[C@@H](CO)C(=O)N[C@@H](Cc1ccccc1)C(=O)N[C@@H](CO)C(=O)N[C@@H](CC(=O)O)C(=O)N[C@H](C(=O)NCC(N)=O)C(C)C [Peptide A07P42] (H-SGYTANQRINLNEKSFSDVG-NH2)	− (symbol − indicates its absence, following criteria established in Example 2)	–
CC(C)C[C@H](NC(=O)[C@@H](NC(=O)[C@H](CC(=O)O)NC(=O)[C@H](CC(N)=O)NC(=O)CNC(=O)[C@H](C)NC(=O)CNC(=O)CNC(=O)[C@H](CCCCN)NC(=O)[C@H](CC(C)C)NC(=O)[C@@H](NC(=O)[C@H](CC(N)=O)NC(=O)[C@H](CC(N)=O)NC(=O)[C@H](C)N)C(C)C)C(C)C)C(=O)N[C@@H](Cc1ccccc1)C(=O)NCC(=O)NCC(=O)NCC(=O)NCC(=O)N[C@@H](C)C(N)=O [Peptide A07P43] (H-ANNVLKGGAGNDVLFGGGGA-NH2)	− (symbol − indicates its absence, following criteria established in Example 2)	–
CC[C@H](C)[C@H](NC(=O)[C@H](C)NC(=O)[C@H](CC(N)=O)NC(=O)[C@H](CCC(=O)O)NC(=O)[C@@H](NC(=O)[C@@H](NC(=O)[C@@H](NC(=O)CNC(=O)[C@H](C)NC(=O)[C@H](C)NC(=O)[C@@H](NC(=O)[C@H](CO)NC(=O)[C@@H](NC(=O)[C@H](CC(N)=O)NC(=O)CNC(=O)[C@H](CCCCN)NC(=O)[C@H](CC(C)C)NC(=O)CN)C(C)C)[C@@H](C)CC)C(C)C)[C@@H](C)O)[C@@H](C)CC)C(=O)NCC(=O)NCC(N)=O [Peptide A07P44] (H-GLKGNVSIAAGVTIENAIGG-NH2)	− (symbol − indicates its absence, following criteria established in Example 2)	–
CC[C@H](C)[C@H](NC(=O)[C@H](C)NC(=O)[C@H](CC(N)=O)NC(=O)[C@H](CCC(=O)O)NC(=O)[C@@H](NC(=O)[C@@H](NC(=O)[C@@H](NC(=O)CN)C(C)C)[C@@H](C)O)[C@@H](C)CC)C(=O)NCC(=O)NCC(=O)N[C@@H](CO)C(=O)NCC(=O)N[C@@H](CC(N)=O)C(=O)N[C@@H](CC(=O)O)C(=O)N[C@H](C(=O)N[C@H](C(=O)N[C@H](C(=O)NCC(=O)N[C@@H](CC(N)=O)C(=O)N[C@@H](C)C(N)=O)C(C)C)[C@@H](C)CC)C(C)C [Peptide A07P45] (H-GVTIENAIGGSGNDVIVGNA-NH2)	− (symbol − indicates its absence, following criteria established in Example 2)	–
CC(C)C[C@H](NC(=O)[C@H](CCC(=O)O)NC(=O)[C@H](CC(=O)O)NC(=O)[C@H](C)NC(=O)CNC(=O)CNC(=O)CNC(=O)CNC(=O)[C@H](Cc1ccccc1)NC(=O)[C@H](CC(C)C)NC(=O)[C@@H](NC(=O)[C@H](CC(=O)O)NC(=O)[C@@H](N)CC(N)=O)C(C)C)C(=O)N[C@@H](Cc1c[nH]c2ccccc12)C(=O)NCC(=O)NCC(=O)N[C@@H](C)C(=O)NCC(=O)N[C@@H](CCCCN)C(=O)N[C@@H](CC(=O)O)C(N)=O [Peptide A07P46] (H-NDVLFGGGGADELWGGAGKD-NH2)	− (symbol − indicates its absence, following criteria established in Example 2)	–
CC[C@H](C)[C@H](NC(=O)[C@H](CO)NC(=O)[C@@H](NC(=O)[C@H](CC(N)=O)NC(=O)CNC(=O)[C@H](CCCCN)NC(=O)[C@H](CC(C)C)NC(=O)CNC(=O)CNC(=O)[C@@H](NC(=O)[C@H](CC(=O)O)NC(=O)[C@H](CO)NC(=O)[C@H](Cc1ccccc1)NC(=O)[C@H](CO)NC(=O)[C@H](CCCCN)NC(=O)[C@H](CCC(=O)O)NC(=O)[C@H](CC(N)=O)NC(=O)[C@@H](N)CC(C)C)C(C)C)C(C)C)C(=O)N[C@@H](C)C(=O)N[C@@H](C)C(N)=O [Peptide A07P47] (H-LNEKSFSDVGGLKGNVSIAA-NH2)	− (symbol − indicates its absence, following criteria established in Example 2)	–
C[C@H](NC(=O)[C@H](C)NC(=O)[C@H](Cc1ccc(O)cc1)NC(=O)[C@H](Cc1c[nH]cn1)NC(=O)CNC(=O)CNC(=O)[C@H](CC(N)=O)NC(=O)[C@H](CC(=O)O)NC(=O)CNC(=O)CNC(=O)[C@@H](NC(=O)[C@H](CC(N)=O)NC(=O)[C@@H](NC(=O)[C@H](CCC(=O)O)NC(=O)[C@H](CO)NC(=O)[C@H](Cc1c[nH]c2ccccc12)NC(=O)[C@H](Cc1ccc(O)cc1)NC(=O)[C@@H](N)CO)[C@@H](C)O)[C@@H](C)O)C(=O)N[C@@H](C)C(=O)N1CCC[C@H]1C(N)=O [Peptide D06P91] (H-SYWSETNTGGDNGGHYAAAP-NH2)	− (symbol − indicates its absence, following criteria established in Example 2)	–
CC[C@H](C)[C@H](NC(=O)[C@H](C)NC(=O)[C@H](C)NC(=O)[C@@H](NC(=O)[C@H](CC(=O)O)NC(=O)[C@H](CC(=O)O)NC(=O)[C@H](CC(C)C)NC(=O)[C@H](CC(C)C)NC(=O)[C@@H]1CCCN1C(=O)[C@H](C)NC(=O)[C@H](C)NC(=O)[C@H](C)NC(=O)[C@H](Cc1ccc(O)cc1)NC(=O)[C@H](Cc1c[nH]cn1)NC(=O)CNC(=O)CNC(=O)[C@H](CC(N)=O)NC(=O)[C@@H](N)CC(=O)O)[C@@H](C)CC)C(=O)N[C@@H](CCC(N)=O)C(=O)N[C@@H](Cc1c[nH]cn1)C(N)=O [Peptide E07P01] (H-DNGGHYAAAPLLDDIAAIQH-NH2)	− (symbol − indicates its absence, following criteria established in Example 2)	–
CC[C@H](C)[C@H](NC(=O)[C@H](CC(N)=O)NC(=O)[C@@H](N)C(C)C)C(=O)NCC(=O)NCC(=O)N[C@@H](Cc1c[nH]cn1)C(=O)N[C@@H](CCC(N)=O)C(=O)N[C@@H](C)C(=O)N1CCC[C@H]1C(=O)N[C@@H](CC(=O)O)C(=O)N[C@@H](Cc1ccccc1)C(=O)N[C@@H](CC(C)C)C(=O)N[C@H](C(=O)N[C@@H](CCCCN)C(=O)N[C@H](C(=O)N[C@H](C(=O)NCC(=O)N[C@@H](CCC(N)=O)C(=O)N[C@H](C(=O)N[C@@H](CC(=O)O)C(N)=O)C(C)C)C(C)C)[C@@H](C)CC)C(C)C [Peptide E07P02] (H-VNIGGHQAPDFLVKIVGQVD-NH2)	− (symbol − indicates its absence, following criteria established in Example 2)	–
CC[C@H](C)[C@H](NC(=O)[C@H](Cc1ccccc1)NC(=O)[C@H](CC(=O)O)NC(=O)[C@@H](NC(=O)[C@H](C)NC(=O)[C@@H](NC(=O)[C@H](CC(=O)O)NC(=O)[C@@H](NC(=O)[C@H](CCC(N)=O)NC(=O)CNC(=O)[C@@H](NC(=O)[C@@H](NC(=O)[C@H](CCCCN)NC(=O)[C@@H](NC(=O)[C@H](CC(C)C)NC(=O)[C@@H](N)Cc1ccccc1)C(C)C)[C@@H](C)CC)C(C)C)C(C)C)C(C)C)[C@@H](C)O)C(=O)N[C@H](C(N)=O)C(C)C [Peptide E07P03, FLVKIVGQVDVATDFIV- amide] (H-FLVKIVGQVDVATDFIV-NH2)	− (symbol − indicates its absence, following criteria established in Example 2)	–
CC[C@H](C)[C@H](NC(=O)[C@H](C)NC(=O)[C@H](C)NC(=O)[C@@H](NC(=O)[C@H](CC(=O)O)NC(=O)[C@H](CC(=O)O)NC(=O)[C@H](CC(C)C)NC(=O)[C@@H](N)CC(C)C)[C@@H](C)CC)C(=O)N[C@@H](CCC(N)=O)C(=O)N[C@@H](Cc1c[nH]cn1)C(=O)N[C@@H](CC(C)C)C(=O)N[C@@H](Cc1ccc(O)cc1)C(=O)NCC(=O)N[C@@H](C)C(=O)N[C@@H](CC(N)=O)C(=O)N1CCC[C@H]1C(=O)N[C@@H](CO)C(=O)N[C@H](C(=O)N[C@@H](CCCNC(=N)N)C(=O)N[C@H](C(N)=O)[C@@H](C)O)[C@@H](C)O [Peptide E07P05] (H-LLDDIAAIQHLYGANPSTRT-NH2)	− (symbol − indicates its absence, following criteria established in Example 2)	–
CC(C)C[C@H](N)C(=O)N[C@@H](Cc1ccc(O)cc1)C(=O)NCC(=O)N[C@@H](C)C(=O)N[C@@H](CC(N)=O)C(=O)N1CCC[C@H]1C(=O)N[C@@H](CO)C(=O)N[C@H](C(=O)N[C@@H](CCCNC(=N)N)C(=O)N[C@H](C(=O)NCC(=O)N[C@@H](CC(=O)O)C(=O)N[C@H](C(=O)N[C@H](C(=O)N[C@@H](Cc1ccc(O)cc1)C(=O)NCC(=O)N[C@@H](Cc1ccccc1)C(=O)N[C@@H](CC(N)=O)C(=O)N[C@@H](CO)C(=O)N[C@@H](CC(N)=O)C(N)=O)C(C)C)[C@@H](C)O)[C@@H](C)O)[C@@H](C)O [Peptide E07P06] (H-LYGANPSTRTGDTVYGFNSN-NH2)	− (symbol − indicates its absence, following criteria established in Example 2)	no cytotoxic activity
